Measurements published in the supplement of paper PMC10307832.

Experiments:
Assay in all cases: relative viability (nuclei count vs DMSO), 5 days (fraction); higher = more cells survive
YM155 + Navitoclax = compound: COCC[n+]1c2c(n(Cc3cnccn3)c1C)C(=O)c1ccccc1C2=O [YM155] + CC1(C)CCC(c2ccc(Cl)cc2)=C(CN2CCN(c3ccc(C(=O)NS(=O)(=O)c4ccc(N[C@H](CCN5CCOCC5)CSc5ccccc5)c(S(=O)(=O)C(F)(F)F)c4)cc3)CC2)C1 [Navitoclax] (partner 0.5 µM)
In short: (§1)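 Values are medians from duplicate plates. Each reflects relative viability, defined as the nuclei count of treated wells over that of vehicle wells. Lung cancer cell lines in 1536-well plates were pin-tool dosed one day after seeding with one drug alone or with a fixed anchor-drug dose plus five library-drug doses (not always all listed) in √10 steps, then fixed, stained and imaged at 4× after 5 days.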

YM155 + Decitabine = compound: COCC[n+]1c2c(n(Cc3cnccn3)c1C)C(=O)c1ccccc1C2=O [YM155] + Nc1ncn([C@H]2C[C@H](O)[C@@H](CO)O2)c(=O)n1 [Decitabine] (partner 2 µM)
In short: as §1

Quizartinib + Foretinib = compound: CC(C)(C)c1cc(NC(=O)Nc2ccc(-c3cn4c(n3)sc3cc(OCCN5CCOCC5)ccc34)cc2)no1 [Quizartinib] + COc1cc2c(Oc3ccc(NC(=O)C4(C(=O)Nc5ccc(F)cc5)CC4)cc3F)ccnc2cc1OCCCN1CCOCC1 [Foretinib] (partner 0.25 µM)
In short: as §1

Quizartinib + Decitabine = compound: CC(C)(C)c1cc(NC(=O)Nc2ccc(-c3cn4c(n3)sc3cc(OCCN5CCOCC5)ccc34)cc2)no1 [Quizartinib] + Nc1ncn([C@H]2C[C@H](O)[C@@H](CO)O2)c(=O)n1 [Decitabine] (partner 2 µM)
In short: as §1

Row | Cell Line | relative viability (YM155 + Navitoclax; first compound 0.002 µM) | relative viability (YM155 + Navitoclax; first compound 0.006325 µM) | relative viability (YM155 + Navitoclax; first compound 0.02 µM) | relative viability (YM155 + Navitoclax; first compound 0.06325 µM) | relative viability (YM155 + Decitabine; first compound 0.002 µM) | relative viability (YM155 + Decitabine; first compound 0.006325 µM) | relative viability (YM155 + Decitabine; first compound 0.02 µM) | relative viability (YM155 + Decitabine; first compound 0.06325 µM) | relative viability (Quizartinib + Foretinib; first compound 0.001 µM) | relative viability (Quizartinib + Foretinib; first compound 0.003162 µM) | relative viability (Quizartinib + Foretinib; first compound 0.01 µM) | relative viability (Quizartinib + Foretinib; first compound 0.03162 µM) | relative viability (Quizartinib + Foretinib; first compound 0.1 µM) | relative viability (Quizartinib + Decitabine; first compound 0.001 µM) | relative viability (Quizartinib + Decitabine; first compound 0.003162 µM) | relative viability (Quizartinib + Decitabine; first compound 0.01 µM) | relative viability (Quizartinib + Decitabine; first compound 0.03162 µM) | relative viability (Quizartinib + Decitabine; first compound 0.1 µM)
1 | NCI-H1395 | 1.4 | 0.799 | 1.53 | 1.55 | 0.715 | 0.689 | 0.736 | 0.776 | 0.961 | 0.971 | 1.02 | 0.995 | 1.03 | 0.718 | 0.74 | 0.728 | 0.718 | 0.774
2 | NCI-H1437 | 1.07 | 1.08 | 1.09 | 1.01 | 0.557 | 0.539 | 0.567 | 0.472 | 0.719 | 1.16 | 1.28 | 1.07 | 0.949 | 0.402 | 0.54 | 0.567 | 0.536 | 0.499
3 | NCI-H1650 | 1.23 | 1.08 | 0.835 | 0.23 | 0.382 | 0.384 | 0.452 | 0.203 | 0.549 | 1.11 | 1.35 |  | 1.03 | 0.345 | 0.364 | 0.458 |  | 0.393
4 | NCI-H1651 | 1.22 | 0.995 | 1.08 | 0.606 | 0.667 | 0.613 | 0.627 | 0.586 | 0.766 | 0.747 | 0.872 | 0.606 | 0.769 | 0.626 | 0.642 | 0.667 | 0.612 | 0.626
5 | NCI-H1666 | 0.991 |  | 0.996 | 0.861 | 0.749 | 0.671 | 0.78 | 0.726 | 0.749 | 0.925 | 1.03 | 0.783 | 1.02 | 0.649 | 0.723 | 0.777 | 0.717 | 0.783
6 | NCI-H1734 | 0.867 | 0.88 | 0.835 | 0.876 | 0.474 | 0.525 | 0.468 | 0.446 | 0.693 | 0.776 | 0.933 | 0.862 | 0.802 | 0.504 | 0.459 | 0.656 | 0.499 | 0.485
7 | NCI-H1755 | 0.996 | 0.981 | 0.949 | 1.06 | 0.697 | 0.711 | 0.723 | 0.784 | 0.826 | 0.881 | 0.93 | 0.956 | 0.822 | 0.59 | 0.676 | 0.71 | 0.722 | 0.734
8 | NCI-H1793 |  | 0.337 | 0.422 | 0.301 | 0.988 | 0.485 | 0.61 | 0.497 | 0.728 | 0.59 | 0.797 | 0.759 | 0.729 | 0.543 | 0.404 | 0.534 | 0.534 | 0.466
9 | NCI-H1915 | 0.804 | 0.79 | 0.792 | 0.822 | 0.277 | 0.256 | 0.264 | 0.267 | 1.06 | 0.992 | 1.13 | 1.03 | 1.07 | 0.23 | 0.252 | 0.279 | 0.263 | 0.267
